Measured values reported in patent US7632829B2, “Diazepan derivatives” (Hoffmann-La Roche Inc., priority 2006, dated 2009).

Molecular target: T1, human chemokine receptor 2 isoform B (Homo sapiens, UniProt P41597)
T1 construct: host or cells: CHOK1-CCR2B-A5 (CHO-K1)
T1 sequence (P41597 1-360 isoform P41597-2): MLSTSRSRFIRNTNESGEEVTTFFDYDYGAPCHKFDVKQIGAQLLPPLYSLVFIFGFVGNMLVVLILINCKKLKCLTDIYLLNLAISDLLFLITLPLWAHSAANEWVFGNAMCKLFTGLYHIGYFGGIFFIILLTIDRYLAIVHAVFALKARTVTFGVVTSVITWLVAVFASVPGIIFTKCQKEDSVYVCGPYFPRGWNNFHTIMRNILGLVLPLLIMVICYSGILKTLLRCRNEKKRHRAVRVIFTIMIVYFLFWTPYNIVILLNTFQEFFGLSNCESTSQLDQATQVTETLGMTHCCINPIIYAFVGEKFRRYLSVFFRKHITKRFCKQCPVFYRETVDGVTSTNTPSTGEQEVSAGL
Assay: Calcium mobilization assay (FLIPR, CHOK1-CCR2B-A5 cells, 20 nM MCP-1)
Type: cell-based
Settings: Ca mobilisation assay, CCR2, antagonist activity vs 20 nM MCP-1
Outline: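 FLIPR Fluo-4 calcium readout in CHO-K1 cells stably overexpressing human CCR2B; compounds first monitored 80 s for agonist activity, then after 20-30 min at 30 °C challenged with 20 nM MCP-1. Response is max minus basal fluorescence; antagonist value is concentration giving 50% inhibition of specific calcium increase.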

Row | Compound | IC50 [nM]
1 | C[N+]1(CCCN2CCN(C(=O)/C=C/c3ccc(Cl)c(Cl)c3)CCC2=O)CCC2(CC1)NC(=O)NC2=O (stereo not shown) [Example 153, 8-(3-{4-[(E)-3-(3,4-Dichloro-phenyl)-acryloyl]-7-oxo-[1,4]diazepan-1-yl}-propyl)-8-methyl-2,4-dioxo-1,3-diaza-8-azonia-spiro[4.5]decane iodide] | 446
2 | C[N+]1(CCCN2CCN(C(=O)C=Cc3ccc(Cl)c(Cl)c3)CCC2=O)CCCCC1 [Example 154, 1-(3-{4-[3-(3,4-Dichloro-phenyl)-acryloyl]-7-oxo-[1,4]diazepan-1-yl}-propyl)-1-methyl-piperidinium iodide] | 373
3 | O=C(/C=C/c1ccc(Cl)c(Cl)c1)N1CCC(=O)N(CCCCN2CCOCC2)CC1 [Example 155, 1-[(E)-3-(3,4-Dichloro-phenyl)-acryloyl]-4-(4-morpholin-4-yl-butyl)-[1,4]diazepan-5-one] | 370
4 | O=C(/C=C/c1ccc2ccccc2c1)N1CCC(=O)N(CCCN2CCCCC2)CC1 [Example 157, 1-((E)-3-Naphthalen-2-yl-acryloyl)-4-(3-piperidin-1-yl-propyl)-[1,4]diazepan-5-one] | 703
5 | O=C(/C=C/c1ccc(Cl)c(Cl)c1)N1CCC(=O)N(CCCN2CCC(O)CC2)CC1 [Example 159, 1-[(E)-3-(3,4-Dichloro-phenyl)-acryloyl]-4-[3-(4-hydroxy-piperidin-1-yl)-propyl]-[1,4]diazepan-5-one] | 258
6 | O=C(/C=C/c1ccc(Cl)c(Cl)c1)N1CCC(=O)N(CCCCCN2CCCCC2)CC1 [Example 162, 1-[(E)-3-(3,4-Dichloro-phenyl)-acryloyl]-4-(5-piperidin-1-yl-pentyl)-[1,4]diazepan-5-one] | 319
7 | O=C(/C=C/c1ccc(Cl)c(Cl)c1)N1CCC(=O)N(C[C@@H](O)CN2CCCCC2)CC1 [Example 167, 1-[(E)-3-(3,4-Dichloro-phenyl)-acryloyl]-4-((S)-2-hydroxy-3-piperidin-1-yl-propyl)-[1,4]diazepan-5-one] | 28
8 | O=C(/C=C/c1ccc(Cl)c(Cl)c1)N1CCC(=O)N(CC[C@@H](O)CN2CCCCC2)CC1 [Example 172, 1-[(E)-3-(3,4-Dichloro-phenyl)-acryloyl]-4-((R)-3-hydroxy-4-piperidin-1-yl-butyl)-[1,4]diazepan-5-one] | 105
9 | O=C(/C=C/c1ccc(F)c(Cl)c1)N1CCC(=O)N(C[C@@H](O)CN2CCCCC2)CC1 [Example 175, 1-[(E)-3-(3-Chloro-4-fluoro-phenyl)-acryloyl]-4-((S)-2-hydroxy-3-piperidin-1-yl-propyl)-[1,4]diazepan-5-one] | 96
10 | O=C(/C=C/c1ccc(Cl)c(Cl)c1)N1CCC(=O)N(CC[C@H](O)CN2CCCCC2)CC1 [Example 178, 1-[(E)-3-(3,4-Dichloro-phenyl)-acryloyl]-4-((S)-3-hydroxy-4-piperidin-1-yl-butyl)-[1,4]diazepan-5-one] | 201
11 | C[C@@H]1CN(CCCN2CCCCC2)C(=O)CCN1C(=O)/C=C/c1ccc(Cl)c(Cl)c1 [Example 186, (R)-1-[(E)-3-(3,4-Dichloro-phenyl)-acryloyl]-2-methyl-4-(3-piperidin-1-yl-propyl)-[1,4]diazepan-5-one] | 38
12 | O=C(/C=C/c1cccc(Cl)c1)N1CCC(=O)N(CCCN2CCCCC2)CC1 [Example 188, 1-[(E)-3-(3-Chloro-phenyl)-acryloyl]-4-(3-piperidin-1-yl-propyl)-[1,4]diazepan-5-one] | 1340
13 | O=C(/C=C/c1ccc(F)c(Cl)c1)N1CCC(=O)N(CCCN2CCC3(CC3)C(O)C2)CC1 (stereo not drawn) [Example 189, 1-[(E)-3-(3-Chloro-4-fluoro-phenyl)-acryloyl]-4-[3-((-)-4-hydroxy-6-aza-spiro[2.5]oct-6-yl)-propyl]-[1,4]diazepan-5-one] | 8
14 | C[C@H]1CCN(CCCN2CCN(C(=O)/C=C/c3ccc(F)c(Cl)c3)CCC2=O)C[C@H]1O [Example 190, 1-[(E)-3-(3-Chloro-4-fluoro-phenyl)-acryloyl]-4-[3-((+, cis)-3-hydroxy-4-methyl-piperidin-1-yl)-propyl]-[1,4]diazepan-5-one] | 118
15 | O=C(/C=C/c1ccc(F)c(Cl)c1)N1CCC(=O)N(CCCN2CCC3(CC3)C(O)C2)CC1 (stereo not shown) [Example 192] | 15
16 | O=C(/C=C/c1ccc(F)c(Cl)c1)N1CCC(=O)N(CCCN2CCC[C@@H](O)C2)CC1 [Example 193] | 644
17 | O=C1NC(=O)C2(CCN(CCCN3CCN(C(=O)/C=C/c4ccc(F)c(Cl)c4)CCC3=O)CC2)N1 [Example 194] | 494
18 | O=C1NCC2(CCN(CCCN3CCN(C(=O)/C=C/c4ccc(F)c(Cl)c4)CCC3=O)CC2)O1 [Example 195] | 453
19 | O=C(/C=C/c1ccc(F)c(Cl)c1)N1CCC(=O)N(CCCN2CCC(O)CC2)CC1 [Example 196] | 864
20 | O=C1CC2(CCN(CCCN3CCN(C(=O)/C=C/c4ccc(F)c(Cl)c4)CCC3=O)CC2)CN1 [Example 198] | 739
21 | N#CC1CCN(CCCN2CCN(C(=O)/C=C/c3ccc(F)c(Cl)c3)CCC2=O)CC1 [Example 199] | 1340
22 | COC(=O)NC1CCN(CCCN2CCN(C(=O)/C=C/c3ccc(F)c(Cl)c3)CCC2=O)CC1 [Example 201] | 656

Row | Compound | IC50 [nM]
23 | O=C(/C=C/c1ccc(F)c(Cl)c1)N1CCC(=O)N(CCCN2CCC(CO)CC2)CC1 [Example 212] | 437
24 | O=C(/C=C/c1ccc(Cl)c(Cl)c1)N1CCC(=O)N(CCCN2CCC(CO)CC2)CC1 [Example 229] | 154
25 | CC(C)N1CCN(CCCN2CCN(C(=O)/C=C/c3ccc(Cl)c(Cl)c3)CCC2=O)CC1 [Example 240] | 105
26 | O=C(/C=C/c1ccc(Cl)c(Cl)c1)N1CCC(=O)N(CCCN2CCN(C3CC3)CC2)CC1 [Example 241] | 765
27 | O=C(/C=C/c1ccc(Cl)c(Cl)c1)N1CCC(=O)N(CCCN2CCN(C3CCCC3)CC2)CC1 [Example 242] | 124
28 | COC(=O)NC1CCN(CCCN2CCN(C(=O)/C=C/c3ccc(Cl)c(Cl)c3)CCC2=O)CC1 [Example 244] | 660
29 | COCC1CCN(CCCN2CCN(C(=O)/C=C/c3ccc(Cl)c(Cl)c3)CCC2=O)CC1 [Example 247] | 613
30 | CC1(CO)CCN(CCCN2CCN(C(=O)/C=C/c3ccc(Cl)c(Cl)c3)CCC2=O)CC1 [Example 254] | 108
31 | CC(C)CN1CCN(CCCN2CCN(C(=O)/C=C/c3ccc(Cl)c(Cl)c3)CCC2=O)CC1 [Example 258] | 375
32 | O=C(/C=C/c1ccc(Cl)c(Cl)c1)N1CCC(=O)N(CCCN2CCC3(CC3)C(O)C2)CC1 (stereo not shown) [Example 261] | 9
33 | O=C(/C=C/c1ccc(Cl)c(Cl)c1)N1CCC(=O)N(CCCN2CCC3(CC3)C(O)C2)CC1 (stereo not shown) [Example 262] | 4
34 | O=C(/C=C/c1ccc(Cl)c(Cl)c1)N1CCC(=O)N(CC(O)CN2CCC(O)CC2)CC1 (stereo not shown) [Example 285] | 644
35 | O=C(/C=C/c1ccc(Cl)c(Cl)c1)N1CCC(=O)N(C[C@@H](O)CN2CCC3(CC3)C(O)C2)CC1 (stereo partly drawn) [Example 327, 1-[(E)-3-(3,4-Dichloro-phenyl)-acryloyl]-4-[(S)-2-hydroxy-3-((−)-4-hydroxy-6-aza-spiro[2.5]oct-6-yl)-propyl]-[1,4]diazepan-5-one] | 2
36 | O=C(/C=C/c1ccc(Cl)c(Cl)c1)N1CCC(=O)N(C[C@@H](O)CN2CCC3(CC3)C(O)C2)CC1 (stereo partly drawn) [Example 332, 1-[(E)-3-(3,4-Dichloro-phenyl)-acryloyl]-4-[(S)-2-hydroxy-3-((+)-4-hydroxy-6-aza-spiro[2.5]oct-6-yl)-propyl]-[1,4]diazepan-5-one] | 2
37 | CC1(C)CCN(C[C@H](O)CN2CCN(C(=O)/C=C/c3ccc(Cl)c(Cl)c3)CCC2=O)CC1O (stereo partly drawn) [Example 334, 1-[(E)-3-(3,4-Dichloro-phenyl)-acryloyl]-4-[(S)-2-hydroxy-3-(3-hydroxy-4,4-dimethyl-piperidin-1-yl)-propyl]-[1,4]diazepan-5-one] | 4
38 | O=C(/C=C/c1ccc(F)c(Cl)c1)N1CCC(=O)N(C[C@@H](O)CN2CCC3(CC3)C(O)C2)CC1 (stereo partly drawn) [Example 336, 1-[(E)-3-(3-Chloro-4-fluoro-phenyl)-acryloyl]-4-[(S)-2-hydroxy-3-((−)-4-hydroxy-6-aza-spiro[2.5]oct-6-yl)-propyl]-[1,4]diazepan-5-one] | 3
39 | CC1(CO)CCN(CC(O)CN2CCN(C(=O)C=Cc3ccc(F)c(Cl)c3)CCC2=O)CC1O [Example 340, 1-[(E)-3-(3-Chloro-4-fluoro-phenyl)-acryloyl]-4-[(S)-2-hydroxy-3-((cis)-3-hydroxy-4-hydroxymethyl-4-methyl-piperidin-1-yl)-propyl]-[1,4]diazepan-5-one] | 19
40 | O=C(/C=C/c1ccc(F)c(Cl)c1)N1CCC(=O)N(C[C@@H](O)CN2CCC3(CC3)C(O)C2)CC1 (stereo partly drawn) [Example 342, 1-[(E)-3-(3-Chloro-4-fluoro-phenyl)-acryloyl]-4-[(S)-2-hydroxy-3-((+)-4-hydroxy-6-aza-spiro[2.5]oct-6-yl)-propyl]-[1,4]diazepan-5-one] | 3
41 | CC1(C)CCN(C[C@H](O)CN2CCN(C(=O)/C=C/c3ccc(F)c(Cl)c3)CCC2=O)CC1O (stereo partly drawn) [Example 343, 1-[(E)-3-(3-Chloro-4-fluoro-phenyl)-acryloyl]-4-[(S)-2-hydroxy-3-(3-hydroxy-4,4-dimethyl-piperidin-1-yl)-propyl]-[1,4]diazepan-5-one] | 11
42 | O=C(C=Cc1ccc(Cl)c(Cl)c1)N1CCC(=O)N(CCNC2CCCCC2O)CC1 (stereo not shown) [Example 357] | 385
43 | O=C(/C=C/c1ccc(F)c(Cl)c1)N1CCC(=O)N(CCCCN2CCCCC2)CC1 [Example 382] | 246
